Reference: patent publication US7442501B2, “SQV nucleic acids and polypeptides” (Massachusetts Institute of Technology, priority 2002, dated 2008)

What was measured:
MBP-SQV-1 = assay: UDP-glucuronic acid decarboxylase assay (HPLC-MS); assay type: biochemical, C. elegans; details: in the presence of NAD+ cofactor
Procedure: This enzymatic reaction mixture was analyzed using an HPLC coupled to a mass spectrometer. Ion phase reverse polarity HPLC separated the nucleotide sugars and […] into three peaks of elution as detected by UV (FIG. 3A). These peaks were determined by mass spectrometry to be the substrate UDP-glucuronic acid, the product UDP-xylose, and the cofactor NAD^+. Negative polarity mass spectra identified the masses of the most abundant compounds in the reaction sample as 579 and 535 (FIG. 3B). These masses corresponded to the molecular masses of UDP-glucuronic acid (580) and UDP-xylose (536). The slight difference in molecular mass (579 versus 580 and 535 versus 536) was due to the negative ionization by the mass spectrometer, which removed one hydrogen atom from each compound. The presence of isotopic masses of 536 and 537 corresponded to subpopulations of UDP-xylose containing heavy isotopes such as ^13C.
Standard molecular biology techniques were used (Sambrook et al., Molecular Cloning: A Laboratory Manual. Plainview, N.Y., Cold Spring Harbor Laboratory Pess, 1989) to obtain a construct that encoded a SQV-1-maltose-binding protein (MBP) fusion protein. The sqv-1 coding sequence was cloned into the MBP encoding vector, pMAL-c2. The oligonucleotides 5′-[…]-3′ (SEQ ID NO:32) and 5′-[…]-3′ (SEQ ID NO:33) were used to PCR-amplify the sqv-1 ORF. […]

SQV-4 = biological target: T1, SQV-4 (Caenorhabditis elegans, UniProt Q19905, T2A); assay type: biochemical, C. elegans; details: UDP-glucose replaced; 100 μM NAD+ and 250 μM nucleotide sugar
T1 construct: were used for PCR-amplification of the sqv-4 ORF, and the resulting product was digested with NcoI and XhoI and cloned into pET21d; made in house; host or cells: E. coli BL21 pLysS, pET21d; soluble fraction used without purification
From the text: The sqv-4 coding sequences corresponding to the wild-type, n2827, and n2840 alleles were cloned into the pET21d E. coli expression vector and transformed into BL21 pLysS. The oligonucleotides 5′-[…]-3′ (SEQ ID NO:53) and 5′-[…]-3′ (SEQ ID NO:54) were used to generate R353H n2827 and T4101 n2840 mutations, respectively, by site-directed mutagenesis. The oligonucleotides 5′-[…]-3′ (SEQ ID NO:55) and 5′-[…]-3′ (SEQ ID NO:56) were used for PCR-amplification of the sqv-4 ORF, and the resulting product was digested with NcoI and XhoI and cloned into pET21d. All three proteins have a threonine to alanine mutation in the second amino acid because of the addition of an NcoI site at the 5′ end. SQV-4 expression was induced by incubation with 1 mM IPTG for three to four hours at 37° C. E. coli were pelleted and resuspended in 50 mM Tris-HCl pH 7.5, 1 mM DTT, 1 mM EDTA, 1 mM PMSF, 2 μg/ml pepstatin A, and aprotinin and lysed using a French pressure cell. The soluble fraction was separated from the insoluble inclusion bodies by centrifugation at 12,000 g for 20 minutes.
All assays were performed at room temperature (20 to 22° C.) in 50 mM Tris-HCl, 2 mM dithiothrietol (DTT), pH 8.7. The initial velocity of the reaction was determined from time points during the first 60 seconds after addition of the SQV-4 extract.

T1 sequence (Q19905 whole entry T2A): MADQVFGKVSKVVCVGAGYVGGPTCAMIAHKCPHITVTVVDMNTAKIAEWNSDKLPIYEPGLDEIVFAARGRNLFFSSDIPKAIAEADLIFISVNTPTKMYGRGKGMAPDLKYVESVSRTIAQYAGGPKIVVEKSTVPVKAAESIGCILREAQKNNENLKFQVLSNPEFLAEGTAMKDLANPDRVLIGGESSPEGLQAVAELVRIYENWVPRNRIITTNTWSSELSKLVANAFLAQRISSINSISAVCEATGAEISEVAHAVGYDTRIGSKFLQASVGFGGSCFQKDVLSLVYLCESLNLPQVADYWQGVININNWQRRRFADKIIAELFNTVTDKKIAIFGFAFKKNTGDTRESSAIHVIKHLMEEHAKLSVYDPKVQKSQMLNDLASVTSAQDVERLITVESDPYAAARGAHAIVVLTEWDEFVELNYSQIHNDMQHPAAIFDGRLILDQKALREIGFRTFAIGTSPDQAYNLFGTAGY

O=C(O)[C@H]1O[C@H](OP(=O)(O)OP(=O)(O)OC[C@H]2O[C@@H](n3ccc(=O)[nH]c3=O)[C@H](O)[C@@H]2O)[C@H](O)[C@@H](O)[C@@H]1O [UDP-glucuronic acid]
conversion by MBP-SQV-1 fusion protein (MBP-SQV-1): generated UDP-xylose from UDP-glucuronic acid
NAD+ reduction (SQV-4): undetectable
